Measurements published in article PMC9926234, “Iterative computational design and crystallographic screening identifies potent inhibitors targeting the Nsp3 macrodomain of SARS-CoV-2” (Proceedings of the National Academy of Sciences of the …, 2023).

What follows are molecules tested against SARS-CoV-2 NSP3 Mac1 (Severe acute respiratory syndrome coronavirus 2, UniProt P0DTD1). Conditions: DSF dose responsiveness, 1 µM nsp3 mac1; adj p given.
Format: binding
Set-up: contains a conserved macrodomain enzyme (Mac1)
Experimental: DSF and associated compound handling was performed as described ([12]), with 5 µM dye “Fluorescent Yellow” (Jacquard iDye Cat #JID1405) used in place of SYPRO Orange. Compounds were tested in triplicate, at seven concentrations in two-fold serial dilutions, at a top concentration of either 1,000 or 100 μM. To minimize experimental noise arising from plate location-based effects on Tma, all concentrations and replicates for each compound were tested within a single region of the microtiter plates, including a DMSO-only control from which ΔTmas were calculated for that compound. […] For each compound, to determine statistical significance of the dose responsive thermal shift, the Spearman’s coefficient was calculated between compound concentration and ΔTma.

| Structure (SMILES) | Spearman est (compound concentration vs apparent Tm) |
| --- | --- |
| O=C(Nc1nc2ccccc2c(=O)[nH]1)c1cccnc1 [Z1082933628] | 0.37 |
| O=C(NC(C(=O)O)c1c[nH]c2ccccc12)c1ncnc2[nH]ccc12 (stereo not shown) [Z4661819162] | −0.51 |
| CCOC(=O)C(NC(=O)c1c[nH]c2ncncc12)c1c[nH]c2ccccc12 (stereo not shown) [Z4661819167] | 0.82 |
| O=C1CSc2cc(C(=O)OC3c4ccccc4CC3F)ccc2N1 (stereo not shown) [Z4718398554] | −0.18 |
| Cc1nc(Cn2cnc3c(N)nc(N)nc32)cs1 [Z4718398569] | 0.06 |
| Nc1nc(N)c2ncn(Cc3csc(Cl)n3)c2n1 [Z4718398572] | 0.89 |
| Nc1nc(N)c2ncn(Cc3csc(C4CC4)n3)c2n1 [Z4718398585] | 0.75 |
| O=C(Nc1cccnc1)Nc1nc2ccccc2c(=O)[nH]1 [Z4718398593] | −0.56 |
| O=C(NCc1nc2ccccc2c(=O)[nH]1)Nc1cccnc1 [Z4718398598] | −0.41 |
| O=C(Nc1cccnc1)Nc1ccc2ccccc2n1 [Z4718398614] | −0.43 |
| COc1ccc(Cl)cc1Cn1cnc2c(N)ncnc21 [ZINC000110510953] | 0.55 |
| O=C1CCCN1CCSc1ncnc2[nH]cnc12 [ZINC000118179920] | 0.78 |
| CC1CN(C(=O)CCc2nc(-c3ccncc3)no2)C1c1ccccc1 (stereo not shown) [ZINC000173980856] | 0.61 |
| O=C(c1cccc(O)c1)N1CCC(Nc2ccccc2)C1 (stereo not shown) [ZINC000182324508] | 0.13 |
| Cc1cc(C(=O)C(C#N)c2nnc3n2CCCCC3)cc(O)n1 (stereo not shown) [ZINC000183202483] | −0.33 |
| Cc1ccc(-c2noc(C3CC(=O)N(c4cn[nH]c4)C3)n2)cc1 (stereo not shown) [ZINC000189176019] | −0.48 |
| Cc1oc(=O)oc1CSc1ncnc2[nH]cnc12 [ZINC000222377450] | 0.54 |
| c1ccc(-c2n[nH]c(Cc3noc([C@@H]4CCCO4)n3)n2)cc1 [ZINC000273900063] | −0.02 |
| OCc1cn(C2CCCN(c3ncnc4[nH]ccc34)C2)nn1 (stereo not shown) [ZINC000292637864] | 0.65 |
| O=C(c1cccc(O)c1)N1CC=C(c2ccccc2)C1 [ZINC000336444141] | 0.55 |
| Fc1ccc(F)c(Sc2ncnc3[nH]ccc23)c1 [ZINC000339235289] | 0.01 |
| Cc1nc(Cc2noc(Cc3ccc4[nH]ncc4c3)n2)no1 [ZINC000345855262] | −0.06 |
| COc1ccc(-c2nnc(NC(=O)Cc3ncccc3F)s2)cc1 [ZINC000350686468] | 0.17 |

| Structure (SMILES) | Spearman est (compound concentration vs apparent Tm) |
| --- | --- |
| Cc1oc(-c2cccs2)nc1Cc1nc(-c2cncnc2N)no1 [ZINC000350813789] | 0.74 |
| CC(C)c1noc(CCc2nc(-c3ccnc4[nH]ccc34)no2)n1 [ZINC000351161347] | −0.81 |
| c1ccc2c(c1)N(c1ncnc3[nH]ccc13)CC21CC1 [ZINC000352369310] | −0.82 |
| Cc1nc(S(=O)(=O)NCc2ccc(-c3ccncc3)cc2)cn1C [ZINC000352487041] | 0.73 |
| c1ccc2c(-c3noc(CCCc4nc(C5CC5)no4)n3)n[nH]c2c1 [ZINC000356759652] | 0.72 |
| Cc1ccc(-c2noc(CCCSC3CCCNC3=O)n2)cc1F (stereo not shown) [ZINC000359061121] | 0.71 |
| Cc1ccc(NS(=O)(=O)c2ccc(C(F)(F)F)cn2)c(O)n1 [ZINC000359659274] | 0.61 |
| Cc1n[nH]c2ncc(CN3CC(C)Oc4c(F)cccc43)cc12 (stereo not shown) [ZINC000361138637] | 0.07 |
| O=C(c1c(F)ccc(O)c1F)N1CCC(Oc2cccc(F)c2)C1 (stereo not shown) [ZINC000368135547] | −0.88 |
| Cc1ccc(C(=O)N2CC[C@H](Oc3ccccc3)C2)cc1O [ZINC000371562024] | −0.6 |
| COC(=O)CC1CN(c2ncnc3[nH]ccc23)c2ccccc21 (stereo not shown) [ZINC000371804911] | 0.77 |
| CC(C(=O)N1CCCC1c1nc(C(N)=O)no1)c1cccc(F)c1 (stereo not shown) [ZINC000373034135] | 0.29 |
| CN(c1cc(NC2CC2)ncn1)C1CCCN(c2cccnn2)C1 (stereo not shown) [ZINC000413143167] | −0.41 |
| CN(Cc1cccc(O)c1)C(=O)Cc1ccncc1 [ZINC000542791186] | 0.23 |
| NC(=O)c1ccc(Cc2noc(CCc3ccoc3)n2)cc1 [ZINC000546336511] | −0.79 |
| Nc1ncnc2c1ncn2CCCc1ccsc1 [ZINC000570815972] | 0.79 |
| CC1c2ccc(F)cc2CCN1C(=O)c1cccc(O)c1 (stereo not shown) [ZINC000679635167] | −0.95 |
| O=C(Cc1ccc2c(c1)CCO2)OCc1cc2ccccc2[nH]c1=O [ZINC000733430132] | −0.12 |
| Cc1cc(-n2cncn2)ccc1C(=O)OCC1OCCc2ccccc21 (stereo not shown) [ZINC000745413896] | 0.55 |
| CCc1noc(C(C)OC(=O)c2cccc3[nH]c(=O)oc23)n1 (stereo not shown) [ZINC000751938095] | −0.41 |
| Cc1ccc(CC(=O)OCc2noc(C3CC3)n2)cc1O [ZINC000772152995] | 0.02 |
| O=C(COC(=O)c1ccc2nsnc2c1)c1ccccc1 [ZINC000779122380] | 0.81 |
| N#Cc1cccc(-n2ccc(C(=O)OCc3cccnc3)n2)c1 [ZINC000798346395] | 0.61 |

| Structure (SMILES) | Spearman est (compound concentration vs apparent Tm) |
| --- | --- |
| Nc1cc(-c2noc(CCn3cccn3)n2)ncn1 [ZINC000820965086] | 0.58 |
| O=C(Cc1ccc(-n2cccn2)cc1)OCC1CCCNC1=O (stereo not shown) [ZINC000835985505] | −0.14 |
| CS(=O)(=O)C1CCCN(c2ncnc3[nH]c(Cl)cc23)C1 (stereo not shown) [ZINC000865679550] | 0.71 |
| Clc1cc2c(N3CCCC(c4cccnc4)C3)ncnc2[nH]1 (stereo not shown) [ZINC000866018680] | 0.2 |
| CC1CCc2n[nH]cc2C1C(=O)N(C)OCc1ccccc1 (stereo not shown) [ZINC000879258074] | 0.45 |
| Cc1csc(=Nc2ccccc2)n1Cc1nnc2n1CCNC2=O [ZINC000881775356] | 0.59 |
| CN(Cc1nnc2c(=O)[nH]ccn12)c1nccc(C(F)(F)F)n1 [ZINC000882897665] | 0.38 |
| CN(Cc1nnc2c(=O)[nH]ccn12)c1cc(Cl)nc(C2CC2)n1 [ZINC000882897766] | −0.19 |
| CC1C(=O)CCCN1C(=O)c1ccnc2[nH]cnc12 (stereo not shown) [ZINC000885048835] | 0.23 |
| CNc1cc(N2CCCC(c3nc(C)no3)C2)ncn1 (stereo not shown) [ZINC000891943247] | 0.24 |
| Cc1ccccc1CC(C)c1nc(-c2cc(N)ncn2)no1 (stereo not shown) [ZINC000896334066] | 0.77 |
| c1csc(CC2CCN(c3ncnc4[nH]ccc34)C2)n1 (stereo not shown) [ZINC000897286891] | −0.05 |
| CNc1cc(-c2noc(CN3CCCC3=O)n2)ncn1 [ZINC000904236028] | −0.56 |
| Cc1nc(Cc2noc(-c3ncnc4[nH]ccc34)n2)no1 [ZINC000904346960] | 0.21 |
| CC(c1ccc(Cl)c(Cl)c1)S(=O)(=O)Cc1cn[nH]c1 (stereo not shown) [ZINC000905245728] | −0.2 |
| CN(C(=O)CN1CCNC(=O)C1)c1ccc(-c2nccs2)cc1 [ZINC000910053700] | −0.73 |
| Cc1nc2c(C(=O)OCc3ccnc(N(C)C)c3)ccnc2[nH]1 [ZINC000924094620] | 0.62 |
| Cn1cnc(C(=O)NCC2CCN2C(=O)c2ncnc3[nH]ccc23)c1 (stereo not shown) [ZINC000949397098] | 0.3 |
| CN1C(=O)[C@H]2CN(C(=O)c3ncnc4[nH]ccc34)C[C@H]2C1=O [ZINC001119059028] | −0.58 |
| Nc1nc(N)c2ncn(C3CN(C(=O)Cc4cccnc4)C3)c2n1 [ZINC001156036512] | 0.06 |
| NC(=O)c1ccc(CCSc2cccc(F)c2)cc1 [ZINC001165768885] | −0.73 |
| Cc1ccccc1CNc1ncnc(-c2ccccc2)n1 [ZINC001184571635] | 0.82 |

Same assay, conditions: maximal thermal upshift

| Structure (SMILES) | DSF max dTma |
| --- | --- |
| Cc1cc(C(=O)C(C#N)c2nnc3n2CCCCC3)cc(O)n1 (stereo not shown) [ZINC000183202483] | 0 ˚C |
| c1ccc(-c2n[nH]c(Cc3noc([C@@H]4CCCO4)n3)n2)cc1 [ZINC000273900063] | 0.03 ˚C |
| Cc1ccc(NS(=O)(=O)c2ccc(C(F)(F)F)cn2)c(O)n1 [ZINC000359659274] | 0.65 ˚C |
| CCc1noc(C(C)OC(=O)c2cccc3[nH]c(=O)oc23)n1 (stereo not shown) [ZINC000751938095] | 0.13 ˚C |
| CC1C(=O)CCCN1C(=O)c1ccnc2[nH]cnc12 (stereo not shown) [ZINC000885048835] | 0.16 ˚C |
| CNc1cc(N2CCCC(c3nc(C)no3)C2)ncn1 (stereo not shown) [ZINC000891943247] | 0.27 ˚C |
| Cc1nc(Cc2noc(-c3ncnc4[nH]ccc34)n2)no1 [ZINC000904346960] | 0.27 ˚C |
| Cn1cnc(C(=O)NCC2CCN2C(=O)c2ncnc3[nH]ccc23)c1 (stereo not shown) [ZINC000949397098] | 0.1 ˚C |
| CN1C(=O)[C@H]2CN(C(=O)c3ncnc4[nH]ccc34)C[C@H]2C1=O [ZINC001119059028] | 0 ˚C |
| Nc1nc(N)c2ncn(C3CN(C(=O)Cc4cccnc4)C3)c2n1 [ZINC001156036512] | 0.61 ˚C |

Same assay, conditions: maximal thermal upshift vs DMSO control

| Structure (SMILES) | DSF max dTma |
| --- | --- |
| NC(=O)c1ccc(CCSc2cccc(F)c2)cc1 [Z8885] | 0.09 °C |
| c1ccc2c(c1)N(c1ncnc3[nH]ccc13)CC21CC1 [Z9310] | 0 °C |
| CS(=O)(=O)C1CCCN(c2ncnc3[nH]c(Cl)cc23)C1 (stereo not shown) [Z9550] | 0.64 °C |
| c1ccc2c(-c3noc(CCCc4nc(C5CC5)no4)n3)n[nH]c2c1 [Z9652] | 0.72 °C |
